According to patent US20090105463A1, “Compositions of and Methods of Using Oversulfated Glycosaminoglycans” (Massachusetts Institute of Technology, priority 2005, published 2009):

What was measured:
Format in all cases: cell-based, rat
NBT-II cells = assay: Proliferation assay, whole cell number by electronic cell counter; parameters: reduction in whole cell number / reduction in cell number in the presence of FGF7: concentration or dose not given beside the values; conditions: for percent reduction in whole cell number ± standard deviation / proliferative effect of ligand in the absence of GAGs / reduction in whole cell number: no GAG; for proliferative effect of ligand in the absence of GAGs: ligand 10 ng/ml; for reduction in whole cell number: ligand alone; for reduction in whole cell number / reduction in cell number in the presence of FGF7: compared to untreated cells; for reduction in cell number in the presence of FGF7: ligand plus FGF7, no GAG
Procedure: NBT-II cells were grown until confluence in 75 cm^2 flasks. Each flask was washed with 20 ml PBS and treated with 3 ml trypsin-EDTA at 37° C. for ˜15 minutes until cells completely detached. Cells were centrifuged for 3 minutes at 195×g. The supernatant was aspirated, and the cells were resuspended in 10 ml media. Cell density was measured using an electronic cell counter, and the suspension was diluted to 50,000 cells/ml. The suspension was plated 1 ml/well into 24-well tissue culture plates. After a 24 hour incubation in a 5% CO2, 37° C. humidified incubator, the media was aspirated, the wells were washed with serum free media, and the cells were supplemented with media containing 0.1% FBS and incubated for 24 hours. Cells were sequentially treated with antibodies, GAGs and growth factors as appropriate. Sodium chlorate was added at 50 mM [30]. Antibodies to VEGFR2 or VEGFR3 were added to yield a final dilution of 1:100. All GAGs were initially added over a range of concentrations from 1 ng/ml to 100 μg/ml. Heparin, UDS and DS DT were subsequently added at 1 μg/ml unless otherwise noted. FGF1, FGF2, FGF7 and VEGF were added at 10 ng/ml unless otherwise noted. Cells were then incubated for 72 hours. Wells were then washed twice with PBS and treated with 0.5 ml trypsin-EDTA/well and incubated for 10 minutes at 37° C. Whole cell number was determined using an electronic cell counter.

VEGFR3 = assay: Whole cell ELISA for VEGFR3; conditions: addition of ligand, 24 hours
Procedure: (§1) ELISA was performed using whole cells to quantify relative levels of kinase activity. NBT-II cells were grown until confluence in 75 cm^2 flasks. Each flask was washed with 20 ml PBS and treated with 3 ml trypsin-EDTA at 37° C. for 3-5 minutes, until cells detached. Cells were centrifuged for 3 minutes at 195×g. The supernatant was aspirated, and the cells were resuspended in 10 ml media. The cell density was measured using an electronic cell counter, and the suspension was diluted to 50,000 cells/ml. 100 mm dishes were supplemented with 10 ml cell suspension per dish. After a 24 hour incubation, the media was aspirated, the dishes washed with serum free media, and the cells supplemented with media containing 0.1% FBS. After a 24 hour incubation, dishes were treated with PBS, 10 μg/ml heparin or 10 μg/ml DS DT. Subsequently, cells were treated with 10 ng/ml FGF7, 10 ng/ml VEGF or both. Cells were incubated for 30 minutes (for Erk1, Erk2, phosphor-Erk1/2, Mek1, Mek2, phospho-Mek1/2, Akt1/2 and phospho-Akt1/2/3) or 24 hours (for VEGF, VEGF-C and VEGF-D). […] Total protein concentration was determined by Bradford assay. […] The reaction was quenched with 3 M sulfuric acid, and the plates were analyzed using a UV plate reader at 450 nm. Data were quantified by comparing to a standardized curve with varying concentrations of protein from untreated cells.

VEGF-C = assay: Whole cell ELISA for VEGF-C
Procedure: (§2) ELISA was performed using whole cells to quantify relative levels of kinase activity. NBT-II cells were grown until confluence in 75 cm^2 flasks. Each flask was washed with 20 ml PBS and treated with 3 ml trypsin-EDTA at 37° C. for 3-5 minutes, until cells detached. Cells were centrifuged for 3 minutes at 195×g. The supernatant was aspirated, and the cells were resuspended in 10 ml media. The cell density was measured using an electronic cell counter, and the suspension was diluted to 50,000 cells/ml. 100 mm dishes were supplemented with 10 ml cell suspension per dish. After a 24 hour incubation, the media was aspirated, the dishes washed with serum free media, and the cells supplemented with media containing 0.1% FBS. After a 24 hour incubation, dishes were treated with PBS, 10 μg/ml heparin or 10 μg/ml DS DT. […] Cells were incubated for 30 minutes (for Erk1, Erk2, phosphor-Erk1/2, Mek1, Mek2, phospho-Mek1/2, Akt1/2 and phospho-Akt1/2/3) or 24 hours (for VEGF, VEGF-C and VEGF-D). Media were aspirated and cells were homogenized per manufacture instructions. Total protein concentration was determined by Bradford assay. […] The reaction was quenched with 3 M sulfuric acid, and the plates were analyzed using a UV plate reader at 450 nm. Data were quantified by comparing to a standardized curve with varying concentrations of protein from untreated cells.

VEGF-D = assay: Whole cell ELISA for VEGF-D; conditions: FGF2 in the presence of PBS, heparin or DS DT, 24 hours
Procedure: as §2

[1] = system: phospho-Akt1/2/3 (Thr 308); assay: Whole cell ELISA for phospho-Akt1/2/3 (Thr 308); conditions: ligand in the presence of PBS (no GAG)
Procedure: as §1

[2] = FGF7: ligand (10 ng/ml) or PBS plus FGF7 at 10 ng/ml

With FGF1: Recombinant FGF1, gift from Amgen the “percent reduction in whole cell number ± standard deviation” value (NBT-II cells; [2]) was 18.0 ± 2.6%, the “percent reduction in whole cell number ± standard deviation” value (NBT-II cells; PBS: ligand at 10 ng/ml alone) was 5.4 ± 8.3% and the “proliferative effect of ligand in the absence of GAGs” value (“proliferative effect of ligand” for short) (NBT-II cells) was “did not induce significant proliferative effects”.

In the case of VEGF, the VEGFR3 production (VEGFR3) is reported as “not”, the VEGF-C levels (VEGF-C; ligand over 24 hours, regardless of GAG used) is reported as “increased” and the “percent reduction in whole cell number ± standard deviation” value (NBT-II cells; [2]) is reported as 30.1 ± 7.0%. For the same molecule, the “percent reduction in whole cell number ± standard deviation” value (NBT-II cells; PBS: ligand at 10 ng/ml alone) was 19.8 ± 4.5%, the “proliferative effect of ligand” value (NBT-II cells) was “reduced whole cell number” and the “reduction in whole cell number” value (NBT-II cells) was 19.8±4.5%. For the same molecule, the “reduction in cell number in the presence of FGF7” value (“reduction in cell number” for short) (NBT-II cells) was 30.1±7.0%.

In the case of “FGF2: Recombinant human FGF2, gift from Scios”, the “production of VEGF-C” value (VEGF-C; FGF2 in the presence of PBS, heparin or DS DT, 24 hours) is reported as “did not alter”, the “production of VEGF-D” value (VEGF-D) is reported as “did not alter” and the “percent reduction in whole cell number ± standard deviation” value (NBT-II cells; [2]) is reported as 30.4 ± 8.7%. The “percent reduction in whole cell number ± standard deviation” value (NBT-II cells; PBS: ligand at 10 ng/ml alone) was 18.3 ± 5.0% and the “proliferative effect of ligand” value (NBT-II cells) was “reduced whole cell number”.

B1: VEGF-C: vascular endothelial growth factor C, ligand of VEGFR2 and VEGFR3 (protein, UniProt P49767 112-227, looked up)
Vascular endothelial growth …: AHYNTEILKSIDNEWRKTQCMPREVCIDVGKEFGVATNTFFKPPCVSVYRCGGCCNSEGLQCMNTSTSYLSKTLFEITVPLSQGPKPVTISFANHTSCRCMSKLDVYRQVHSIIRR
In the case of B1, the “reduction in whole cell number” value (NBT-II cells) is reported as 13.4±8.7% and the “reduction in cell number” value (NBT-II cells) is reported as 5.9±5.0%.

B2: VEGF-D: vascular endothelial growth factor D, ligand of VEGFR2 and VEGFR3 (protein, UniProt O43915 89-205, looked up)
Vascular endothelial growth …: FAATFYDIETLKVIDEEWQRTQCSPRETCVEVASELGKSTNTFFKPPCVNVFRCGGCCNEESLICMNTSTSYISKQLFEISVPLTSVPELVPVKVANHTGCKCLPTAPRHPYSIIRR
With B2 the “reduction in whole cell number” value (NBT-II cells) was 16.2±10.8% and the “reduction in cell number” value (NBT-II cells) was 34.5±1.5%.

B3: FGF7: Recombinant FGF7 from Sigma (protein, UniProt P21781 32-194, looked up)
Fibroblast growth factor 7: CNDMTPEQMATNVNCSSPERHTRSYDYMEGGDIRVRRLFCRTQWYLRIDKRGKVKGTQEMKNNYNIMEIRTVAVGIVAIKGVESEFYLAMNKEGKLYAKKECNEDCNFKELILENHYNTYASAKWTHNGGEMFVALNQKGIPVRGKKTKKEQKTAHFLPMAIT
With B3 the VEGFR3 production (VEGFR3) was “increase”, the “percent reduction in whole cell number ± standard deviation” value (NBT-II cells; [2]) was 14.1 ± 2.5% and the “increase in whole cell number” value (NBT-II cells; FGF7 alone, cells treated with 50 mM sodium chlorate) was 28.4±11.8%. The “concentration eliciting maximal effect on cell growth” value (NBT-II cells; dose response, no sodium chlorate, effect constant through 100 ng/ml) was 5 ng/mL, the “concentration at which maximal proliferative effect is achieved” value (NBT-II cells; in the presence of 50 mM sodium chlorate) was 10 ng/mL and the “reduction in whole cell number” value (NBT-II cells) was 14.1±2.5%. The “reduction of phosphorylation of Akt1/2/3 (Thr 308)” value [1] was roughly 20%.
